Laboratory results as given in publication PMC9323797, “4-Substituted Thieno[3,2-d]pyrimidines as Dual-Stage Antiplasmodial Derivatives” (Pharmaceuticals, 2022).
Like-named read-outs stand apart in the source and are kept apart here.

Tests used:
[1] = Cytotoxic evaluation on HepG2 cell line (MTT, 72 h); assay type: cell-based, human; details: HepG2 cells (hepatocarcinoma cell line, ATCC HB-8065); human hepatoma cell line HepG2, MTT, 72 h, mean ± SD of three independent experiments
Method: (§1) The HepG2 cell line (hepatocarcinoma cell line purchased from ATCC, ref HB-8065) was maintained at 37 °C, 5% CO2, with 90% humidity in MEM supplemented with 10% fetal bovine serum, 1% L-glutamine (200 mM), penicillin (100 U/mL), and streptomycin (100 μg/mL) (complete MEM medium). The evaluation of the cytotoxicity of the tested molecules was performed according to the method of Mosmann, with slight modifications. Briefly, 5.103 cells in 100 μL of the complete medium were inoculated into each well of a 96-well plate and incubated at 37 °C in a humidified 5% CO2. After 24 h incubation, 100 μL of medium with various product concentrations dissolved in DMSO (final concentration less than 0.5% v/v) was added and the plates were incubated for 72 h at 37 °C. Triplicate assays were performed for each sample. Each plate well was then microscope-examined for detecting possible precipitate formation before the medium was aspirated from the wells. A total of 100 μL of MTT (3-(4,5-dimethyl-2-thiazolyl)-2,5-diphenyl-2H-tetrazolium bromide) solution (0.5 mg/mL in medium without FCS) was then added to each well. Cells were incubated for 2 h at 37 °C. After this time, the MTT solution was removed and DMSO (100 μL) was added to dissolve the resulting blue formazan crystals. Plates were shaken vigorously (700 rpm) for 10 min. The absorbance was measured at 570 nm, with 630 nm as a reference wavelength using a TECAN Infinite F-200 Microplate Reader. DMSO was used as a blank and doxorubicin (purchased from Sigma Aldrich, St. Louis, MO, USA) was used as a positive control. Cell viability was calculated as a percentage of control (cells incubated without compound). The 50% cytotoxic concentration (CC50) was determined from the dose–response curve by using the TableCurve software 2D v.5.0. CC50 values represent the mean value calculated from three independent experiments.

[2] = Cytotoxicity on primary simian hepatocytes (DAPI count of host cell nuclei); assay type: cell-based, Macaca fascicularis; details: Macaca fascicularis, count of total cell nuclei, mean ± SD of three independent experiments
Method: (§2) Primary simian hepatocytes were isolated from liver segments collected from healthy Macaca fascicularis from CEA, Fontenay aux Roses, France. All hepatocytes were obtained using collagenase perfusion, as previously described, and were immediately cryopreserved. One day before infection, the cryopreserved hepatocytes were thawed at 37 °C and were seeded into collagen-coated (5 µg/cm^2 rat tail collagen I, Invitrogen, Carlsbad, CA, USA) 96-well plate, at a density of 80,000 cells per well. They were cultured at 37 °C in 5% CO2 in William’s E medium (Gibco, Life Technologies, Saint Aubin, France) supplemented with 10% of Fetal Bovine Serum FCIII, 5 × 10^–5 M hydrocortisone hemisuccinate (Serb Laboratories, Paris, France), 5 μg per ml bovine insulin (Sigma Aldrich, St. Louis, MO, USA), 2 mM L-glutamine, and 0.02 U per ml-0.02 μg per ml penicillin-streptomycin (Life Technologies) until infection with sporozoites.
(§3) Sporozoites of P. berghei were re-suspended in the above complete medium used for the hepatocytes culture. Simian hepatocytes were inoculated in 50 μL of complete media with 20,000 P. berghei-sporozoites/well in 96-well plates. The infected culture plates were centrifuged for 10 min at 900× g to allow fast parasite sedimentation onto the target cells and were further incubated with the serial dilution of drugs that were prepared in advance. After 3 h of incubation, cultures were washed and further incubated in a fresh medium containing the appropriate drug concentration, which were changed every 24 h during the study period. Cultured hepatocytes were fixed using 4% paraformaldehyde (PFA) for 15 min at room temperature. Host cell and parasite nuclei were labelled with 4′,6-diamidino-2-phenylindole (DAPI). Upon fixation and immunostaining, cell culture plates were analyzed in order to determine the number and size of the parasites using a Cell Insight High Content Screening platform equipped with the Studio HCS software (Thermo Fisher Scientific, Waltham, MA, USA). The parasite size reduction was calculated on the average object area using the total surface area of each selected object (μm^2). To assess the cell toxicity of drugs for hepatic cultures, fixed plates were further scanned for the DAPI signal representing host nuclei. The analysis was based on counting of total cell nuclei. GraphPad Prism 7 statistical software (GraphPad. Software, San Diego, CA, USA) was used for data analysis and graphing. All values were expressed as means and standard deviations (SD).

[3] = system: P. falciparum K1; assay: Blood-stage antiplasmodial evaluation (SYBR Green I fluorescence, 72 h); assay type: cell-based, Plasmodium falciparum; details: asexual blood stages, drug-resistant K1 strain, 72 h incubation, mean ± SD of three independent experiments; for EC50: read-out: P. falciparum K1 EC50
Method: A K1 culture-adapted P. falciparum strain resistant to chloroquine, pyrimethamine, and proguanil was used in an in vitro culture. It was maintained in a continuous culture, as described previously by Trager and Jensen. Cultures were maintained in fresh A+ human erythrocytes at 2.5% hematocrit in a complete medium (RPMI 1640 with 25 mM HEPES, 25 mM NaHCO3, and 10% of A+ human serum) at 37 °C under a reduced O2 atmosphere (gas mixture: 10% O2, 5% CO2, and 85% N2). Parasitemia was maintained daily between 1 and 3%. The P. falciparum drug susceptibility test was carried out by comparing quantities of DNA in treated and control cultures of parasite in human erythrocytes, according to a SYBR Green I fluorescence-based method using a 96-well fluorescence plate reader. Compounds, previously dissolved in DMSO (final concentration less than 0.5% v/v), were incubated in a total assay volume of 200 μL (RPMI, 2% hematocrit and 0.4% parasitemia) for 72 h in a humidified atmosphere (10% O2 and 5% CO2) at 37 °C, in 96-well flat bottom plates. Duplicate assays were performed for each sample. After incubation, plates were frozen at […] for 24 h. Then, the frozen plates were thawed for 1 h at 37 °C. A total of 15 μL of each sample was transferred to 96-well flat-bottom non-sterile black plates (Greiner Bio-One, Kremsmünster, Austria) already containing 15 μL of the SYBR Green I lysis buffer (2X SYBR Green I, 20 mM Tris base pH 7.5, 20 mM EDTA, 0.008% w/v saponin, 0.08% w/v Triton X-100). Negative control treated by solvents (DMSO or H2O) and positive controls (chloroquine) were added to each set of experiments. Plates were incubated for 15 min at 37 °C and then read on a TECAN Infinite F-200 spectrophotometer with excitation and emission wavelengths at 485 and 535 nm, respectively. The concentrations of compounds required to induce a 50% decrease in parasite growth (EC50 K1) were calculated from three independent experiments.

[4] = system: P. berghei; assay: Hepatic-stage antiplasmodial evaluation (PbGFP sporozoites in primary simian hepatocytes, high content imaging); assay type: cell-based; details: mean ± SD of three independent experiments
Text: P. berghei sporozoites constitutively expressing green fluorescent protein (PbGFP, ANKA strain) were obtained by the dissection of salivary glands from infected Anopheles stephensi mosquitoes bred and infected in the insectary facilities of UMR-S 1135 (CIMI, Paris, France). Infected salivary glands were removed by hand dissection, crushed in a potter, and filtered through a 40 μm filter for sporozoite isolation (Cell Strainer, BD BioSciences, San Jose, CA, USA). The sporozoites were counted using a disposable plastic microscope slide (KOVA).
as §2, §3

[5] = system: P. falciparum K1; design: method as in PMID 25791675; details: asexual blood stages, K1 strain; cited from earlier work
[6] = system: HepG2; design: method as in PMID 25791675; details: cited from earlier work
[7] = system: Primary Simian Hepatocytes; assay: Cytotoxicity on primary simian hepatocytes (DAPI count of host cell nuclei); assay type: cell-based, Macaca fascicularis; details: count of total cell nuclei, mean ± SD of three independent experiments
Method: as §2, §3

[8] = system: HepG2; assay: Cytotoxic evaluation on HepG2 cell line (MTT, 72 h); assay type: cell-based, human; details: toxicity on HepG2 versus EC50 against the erythrocytic stage of P. falciparum
Method: as §1

[9] = Plasmodium falciparum, K1, 72 h

| SMILES | CC50 at 72 h [1] | CC50 [2] | EC50 [3, 9] | P. falciparum K1 EC50 [3] | EC50 ([4]; Plasmodium berghei, Hepatocyte) | EC50 [4] | P. berghei EC50 [4] | EC50 [5] | CC50 [6] | Primary Simian Hepatocytes CC50 [7] | selective index [8] | EC50 [3] |
| --- | --- | --- | --- | --- | --- | --- | --- | --- | --- | --- | --- | --- |
| CNc1nc(NC(C)(C)C)nc2cc(-c3ccc(C)cc3)sc12 [Compound 10c, N^2-(tert-butyl)-N^4-methyl-6-(p-tolyl)thieno[3,2-d]pyrimidine-2,4-diamine] | 3.7 ± 0.6 µM | 31.5 ± 6.8 µM | 1 ± 0.4 µM | micromolar range | ~5 µM | 4.6 ± 5.7 µM | most active | – | – | – | – | – |
| CCCNc1nc(NC(C)(C)C)nc2cc(-c3ccc(C)cc3)sc12 [Compound 10d, N^2-(tert-butyl)-N^4-propyl-6-(p-tolyl)thieno[3,2-d]pyrimidine-2,4-diamine] | 3.7 ± 0.3 µM | 22 ± 2.8 µM | 1.1 ± 0.2 µM | micromolar range | ~5 µM | 7.1 ± 1.4 µM | – | – | – | – | – | – |
| C[C@H]1c2cccc(O)c2C(=O)C2=C(O)[C@]3(O)C(=O)C(C(N)=O)=C(O)[C@@H](N(C)C)[C@@H]3[C@@H](O)[C@@H]21 [Doxycycline] | – | – | – | – | – | – | – | 5 µM | – | – | – | – |
| Cc1ccc(-c2cc3nc(NC(C)(C)C)[nH]c(=O)c3s2)cc1 [Compound 1, Gamhepathiopine, reference compound] | – | > 200 µM | – | – | 24.3 ± 1.6 µM | – | – | 0.2 ± 0.02 µM | 25.6 ± 3.1 µM | – | – | – |
| COCCNc1nc(NC(C)(C)C)nc2cc(-c3ccc(C)cc3)sc12 [Compound 10g, N^2-(tert-butyl)-N^4-(2-methoxyethyl)-6-(p-tolyl)thieno[3,2-d]pyrimidine-2,4-diamine] | 3.7 ± 0.9 µM | 7.8 ± 2.3 µM | 0.8 ± 0.2 µM | micromolar range | ~5 µM | 6.3 ± 0.2 µM | – | – | – | cytotoxic | – | – |
| Cc1ccc(-c2cc3nc(NC(C)(C)C)nc(Cl)c3s2)cc1 [Compound 5, N-(Tert-butyl)-4-chloro-6-(p-tolyl)thieno[3,2-d]pyrimidin-2-amine] | 16.4 ± 5.4 µM | > 100 µM | – | submicromolar range | ~15 µM | 16.5 ± 8 µM | – | – | – | – | 54.7 | – |
| Cc1ccc(-c2cc3nc(NC(C)(C)C)nc(I)c3s2)cc1 [Compound 6, N-(Tert-butyl)-4-iodo-6-(p-tolyl)thieno[3,2-d]pyrimidin-2-amine] | 29 ± 5.5 µM | > 100 µM | – | submicromolar range | 26.7 ± 5.6 µM | – | – | – | – | – | – | – |
| Cc1ccc(-c2cc3nc(NC(C)(C)C)nc(NCCCCO)c3s2)cc1 [Compound 10f, 4-((2-(tert-butylamino)-6-(p-tolyl)thieno[3,2-d]pyrimidin-4-yl)amino)butan-1-ol] | 2.9 ± 1.1 µM | 17.7 ± 1.9 µM | 0.7 ± 0.1 µM | micromolar range | ~15 µM | 14.1 ± 1.9 µM | – | – | – | – | – | – |
| Cc1ccc(-c2cc3nc(NC(C)(C)C)nc(N)c3s2)cc1 [Compound 10a, N^2-(Tert-butyl)-6-(p-tolyl)thieno[3,2-d]pyrimidine-2,4-diamine] | 12.1 ± 4.1 µM | > 50 µM | < 2 µM | micromolar range | 70.7 ± 9.7 µM | – | not active | – | – | – | – | 1.4 ± 0.6 µM |
